Reference: patent US4755527A, “Aryl substituted aminomethyl benzene derivatives” (priority 1985, dated 1988)

Test system: Guinea Pig Ileum
Assay: In vitro evaluation of anticholinergic activity in the isolated guinea pig ileum
Set-up: species or system guinea pig (male Hartley)
Conditions: 4 mg/L; inhibition of field-stimulated contractile tension
Experimental: The following examples describe the in vitro evaluation of anticholinergic activity in the isolated guinea pig ileum. Fasted, male Hartley guinea pigs (300-400 g) were killed by a blow to the head. […] One end of the ileal strip was impaled onto a platinum wire electrode; and the other end was tied to a stationary glass rod. Basal tension was set at 0.1-0.3 g and peak developed tension in response to field stimulation (100-150 V, 10 msec pulse duration, 0.2 Hz) was measured with a tension transducer.

| Molecule | Anticholinergic Inhibition of Guinea Pig Ileum (% inhibition at 4 mg/L) [%] |
| --- | --- |
| 2,6-bis(pyrrolidinylmethyl)-4-benzyl-phenol [XXXVI] | 14 |

Same assay, conditions: Cavia porcellus; 4 mg/L; inhibition of field-stimulated contractile tension; read-out: Anticholinergic Inhibition of Guinea Pig Ileum (% inhibition at 4 mg/L)

| Molecule | inhibition at 4 µg/mL [%] |
| --- | --- |
| Cc1cccc(C(=O)Nc2cc(CN3CCCC3)c(O)c(CN3CCCC3)c2)c1 [XV, N--(3-methylbenzoyl)-3,5,-bis(N--pyrrolidinylmethyl)-4-hydroxyaniline] | 32 |
| O=C(NCc1cc(CN2CCCC2)c(O)c(CN2CCCC2)c1)c1cccc(Cl)c1 [XXVII, N--(3-chlorobenzoyl)-3,5-bis(pyrrolidinylmethyl)-4-hydroxybenzylamine] | 78 |
| O=C(Nc1cc(CN2CCCC2)c(O)c(CN2CCCC2)c1)c1cccs1 [Example XX, N--(2-thiophenecarbonyl)-3,5-bis(N--pyrrolidinylmethyl)-4-hydroxyaniline] | 4 |
| O=C(Nc1cc(CN2CCCC2)c(O)c(CN2CCCC2)c1)c1ccccc1 [Example III, N-benzoyl-3,5-bis(N-pyrrolidinylmethyl)-4-hydroxyaniline] | 35 |
| COc1ccc(C(=O)Nc2cc(CN3CCCC3)c(O)c(CN3CCCC3)c2)cc1 [VIII, N--(4-methoxybenzoyl)-3,5,-bis(N--pyrrolidinylmethyl)-4-hydroxyaniline] | 24 |
| CN(C(=O)c1ccccc1)c1cc(CN2CCCC2)c(O)c(CN2CCCC2)c1 [XXXIV] | 16 |
| O=C(Nc1cc(CN2CCCCC2)c(O)c(CN2CCCCC2)c1)c1ccccc1 [Example XXXII, N-(benzoyl)3,5-bis(piperidinylmethyl)-4-hydroxyaniline] | 33 |
| O=C(Nc1cc(CN2CCCC2)c(O)c(CN2CCCC2)c1)c1ccccc1Cl [Example X, N--(2-chlorobenzoyl)-3,5,-bis(N--pyrrolidinylmethyl)-4-hydroxyaniline] | 0 |
| O=C(c1ccccc1)c1cc(CN2CCCC2)c(O)c(CN2CCCC2)c1 [Example II, 4-hydroxy-3,5-bis(pyrrolidinylmethyl)benzophenone] | 9 |
| O=C(Nc1cc(CN2CCCC2)c(O)c(CN2CCCC2)c1)c1ccc(Cl)cc1Cl [VI, N--(2,4,dichorobenzoyl)-3,5,-bis(N--pyrrolidinylmethyl)-4-hydroxyaniline] | 11 |
| O=C(Nc1cc(CN2CCCC2)c(O)c(CN2CCCC2)c1)c1ccc([N+](=O)[O-])cc1 [VII, N--(4-nitrobenzoyl)-3,5,-bis(N--pyrrolidinylmethyl)-4-hydroxyaniline] | 24 |
| O=C(Cc1cccs1)Nc1cc(CN2CCCC2)c(O)c(CN2CCCC2)c1 [Example XXI] | 13 |
| O=C(NCc1cc(CN2CCCC2)c(O)c(CN2CCCC2)c1)c1cccc(C(F)(F)F)c1 [XXV, N--(3-trifluoromethylbenzoyl)-3,5-bis(pyrrolidinylmethyl)-4-hydroxybenzylamine] | 72 |
| O=C(NCc1cc(CN2CCCC2)c(O)c(CN2CCCC2)c1)c1ccccc1Cl [XXVI, N--(2-chlorobenzoyl)-3,5-bis(pyrrolidinylmethyl)-4-hydroxybenzylamine] | 18 |
| O=C(NCc1cc(CN2CCCC2)c(O)c(CN2CCCC2)c1)c1ccccc1 [Example XXII, N-(benzoyl)-3,5-bis(pyrrolidinylmethyl)-4-hydroxybenzylamine] | 32 |
| O=C(Nc1cc(CN2CCOCC2)c(O)c(CN2CCOCC2)c1)c1ccccc1 [Example XXXI, N-(benzoy)3,5-bis(morpholinomethyl)-4-hydroxyaniline] | 37 |
| Cc1cccc(C)c1C(=O)Nc1cc(CN2CCCC2)c(O)c(CN2CCCC2)c1 [IXX, N--(2,6,dimethylbenzoyl)-3,5,-bis(N--pyrrolidinylmethyl)-4-hydroxyaniline] | 15 |
| O=C(NCc1cc(CN2CCCC2)c(O)c(CN2CCCC2)c1)c1ccccc1C(F)(F)F [XXIV, N--(2-trifluoromethylbenzoyl)-3,5-bis(pyrrolidinylmethyl)-4-hydroxybenzylamine] | 8.5 |
| O=C(NCc1cc(CN2CCCC2)c(O)c(CN2CCCC2)c1)c1ccc(Cl)cc1 [XXIII, N--(4-chlorobenzoyl)-3,5-bis(pyrrolidinylmethyl)-4-hydroxybenzylamine] | 56 |
| O=C(Nc1cc(CN2CCCC2)c(O)c(CN2CCCC2)c1)c1cccc(C(F)(F)F)c1 [IX, N--(3-trifluoromethylbenzoyl)-3,5,-bis(N--pyrrolidinylmethyl)-4-hydroxyaniline] | 62 |
| Nc1cc(CN2CCCC2)c(O)c(CN2CCCC2)c1 [Example XXX, 3,5-bis(N-pyrrolidinylmethyl)-4-hydroxyaniline] | 3 |
| COc1ccccc1C(=O)Nc1cc(CN2CCCC2)c(O)c(CN2CCCC2)c1 [XIV, N--(2-methoxybenzoyl)-3,5,-bis(N--pyrrolidinylmethyl)-4-hydroxyaniline] | 31 |
| O=C(Nc1cc(CN2CCCC2)c(O)c(CN2CCCC2)c1)c1cccc(Cl)c1 [XI, N--(3-chlorobenzoyl)-3,5,-bis(N--pyrrolidinylmethyl)-4-hydroxyaniline] | 37 |
| O=C(Nc1cc(CN2CCCC2)c(O)c(CN2CCCC2)c1)c1ccccc1C(F)(F)F [XII, N--(2-trifluoromethylbenzoyl)-3,5,-bis(N--pyrrolidinylmethyl)-4-hydroxyaniline] | 0 |
| O=C(NCc1cc(CN2CCCC2)c(O)c(CN2CCCC2)c1)c1ccc(C(F)(F)F)cc1 [XXXV, N-(4-trifluoromethyl)-3,5-bis(pyrrolidinylmethyl)-4-hydroxybenzylamine] | 49 |
| COc1cc(C(=O)Nc2cc(CN3CCCC3)c(O)c(CN3CCCC3)c2)cc(OC)c1OC [XVIII] | 5.9 |
| Cc1ccccc1C(=O)Nc1cc(CN2CCCC2)c(O)c(CN2CCCC2)c1 [XVI, N--(2-methylbenzoyl)-3,5,-bis(N--pyrrolidinylmethyl)-4-hydroxyaniline] | 9.4 |
| O=C(Nc1cc(CN2CCCC2)c(O)c(CN2CCCC2)c1)c1c(Cl)cccc1Cl [XVII, N--(2,6,dichlorobenzoyl)-3,5,-bis(N--pyrrolidinylmethyl)-4-hydroxyaniline] | 14.3 |
| Nc1ccc(C(=O)Nc2cc(CN3CCCC3)c(O)c(CN3CCCC3)c2)cc1 [XXVIII, N-(4-aminobenzoyl)-3,5-bis(pyrrolidinylmethyl)-4-hydroxyaniline] | 0 |

Test system: ventricular arrhythmias induced by two-stage ligation of the left anterior descending coronary artery (Harris dog)
Assay: Antiarrhythmic activity by coronary ligation in the Harris dog model (i.v. infusion)
Type: in vivo, dog (adult mongrel)
Conditions: Canis lupus familiaris; Harris dog, IV infusion; ED is the effective dose required to sustain normal sinus rhythm; read-out: Antiarrhythmic ED in Harris Dog
Source text: The following examples describe the pharmacological evaluation of the compounds made in accordance with the present invention. In particular, these examples describe the evaluation of antiarrhythmic activity by coronary ligation in the well known Harris dog model. Ventricular arrhythmias were induced in adult mongrel dogs (10-15 kg) of either sex by two-stage ligation of the left anterior descending coronary artery. […] The test compound in saline was infused intravenously at a cumulative rate of […] to 1.2 mg/kg/min (base) unitl normal sinus rhythm or toxicity occurred. Normal sinus rhythm was defined as 90-100% normal complexes over a 5 min period.

| Molecule | minimal effective dose [mg/kg] |
| --- | --- |
| O=C(Nc1cc(CN2CCCC2)c(O)c(CN2CCCC2)c1)c1ccccc1 [Example III, N-benzoyl-3,5-bis(N-pyrrolidinylmethyl)-4-hydroxyaniline] | 5 |
| O=C(c1ccccc1)c1cc(CN2CCCC2)c(O)c(CN2CCCC2)c1 [Example II, 4-hydroxy-3,5-bis(pyrrolidinylmethyl)benzophenone] | 11 |

Same assay, conditions: Harris dog, IV infusion; ED is the effective dose required to sustain normal sinus rhythm

| Molecule | Antiarrhythmic ED in Harris Dog |
| --- | --- |
| CC(=O)Nc1cc(CN2CCCC2)c(O)c(CN2CCCC2)c1 [Example XXIX, 3,5-bis(N-pyrrolidinylmethyl)-4-hydroxyacetanilide] | inactive |
| Nc1cc(CN2CCCC2)c(O)c(CN2CCCC2)c1 [Example XXX, 3,5-bis(N-pyrrolidinylmethyl)-4-hydroxyaniline] | inactive |
| 2,6-bis(pyrrolidinylmethyl)-4-benzyl-phenol [XXXVI] | low activity |

Test system: ventricular arrhythmias induced by ouabain (Ouabain dog)
Assay: Antiarrhythmic activity in the Ouabain dog model (i.v. infusion)
Type: in vivo
Conditions: Canis lupus familiaris; Ouabain dog, IV infusion; ED is the effective dose required to sustain normal sinus rhythm; read-out: Antiarrhythmic ED in Ouabain Dog
Experimental: The following examples describe the pharmacological evaluation of the compounds in accordance with the present invention. In particular, these examples describe the evaluation of antiarrhythmic activity in the Oubain dog model. […] The test compound was infused intravenously in saline at a rate of about 0.3 to about 5 mg/kg/min until normal sinus rhythm or toxicity occurred. Normal sinus rhythm was defined as 90-100% normal complexes over a 5 minute period.

| Molecule | minimal effective dose [mg/kg] |
| --- | --- |
| Cc1cccc(C(=O)Nc2cc(CN3CCCC3)c(O)c(CN3CCCC3)c2)c1 [XV, N--(3-methylbenzoyl)-3,5,-bis(N--pyrrolidinylmethyl)-4-hydroxyaniline] | 5.3 |
| O=C(NCc1cc(CN2CCCC2)c(O)c(CN2CCCC2)c1)c1cccc(Cl)c1 [XXVII, N--(3-chlorobenzoyl)-3,5-bis(pyrrolidinylmethyl)-4-hydroxybenzylamine] | 9.8 |
| O=C(Nc1cc(CN2CCCC2)c(O)c(CN2CCCC2)c1)c1cccs1 [Example XX, N--(2-thiophenecarbonyl)-3,5-bis(N--pyrrolidinylmethyl)-4-hydroxyaniline] | 1.9 |
| O=C(Nc1cc(CN2CCCC2)c(O)c(CN2CCCC2)c1)c1ccccc1 [Example III, N-benzoyl-3,5-bis(N-pyrrolidinylmethyl)-4-hydroxyaniline] | 3.4 |
| COc1ccc(C(=O)Nc2cc(CN3CCCC3)c(O)c(CN3CCCC3)c2)cc1 [VIII, N--(4-methoxybenzoyl)-3,5,-bis(N--pyrrolidinylmethyl)-4-hydroxyaniline] | 7.2 |
| CN(C(=O)c1ccccc1)c1cc(CN2CCCC2)c(O)c(CN2CCCC2)c1 [XXXIV] | 16 |
| O=C(Nc1cc(CN2CCCCC2)c(O)c(CN2CCCCC2)c1)c1ccccc1 [Example XXXII, N-(benzoyl)3,5-bis(piperidinylmethyl)-4-hydroxyaniline] | 11 |
| O=C(Nc1cc(CN2CCCC2)c(O)c(CN2CCCC2)c1)c1ccccc1Cl [Example X, N--(2-chlorobenzoyl)-3,5,-bis(N--pyrrolidinylmethyl)-4-hydroxyaniline] | 5.8 |
| O=C(c1ccccc1)c1cc(CN2CCCC2)c(O)c(CN2CCCC2)c1 [Example II, 4-hydroxy-3,5-bis(pyrrolidinylmethyl)benzophenone] | 1.9 |
| O=C(Nc1cc(CN2CCCC2)c(O)c(CN2CCCC2)c1)c1ccc([N+](=O)[O-])cc1 [VII, N--(4-nitrobenzoyl)-3,5,-bis(N--pyrrolidinylmethyl)-4-hydroxyaniline] | 11 |
| O=C(NCc1cc(CN2CCCC2)c(O)c(CN2CCCC2)c1)c1cccc(C(F)(F)F)c1 [XXV, N--(3-trifluoromethylbenzoyl)-3,5-bis(pyrrolidinylmethyl)-4-hydroxybenzylamine] | 5.5 |
| O=C(NCc1cc(CN2CCCC2)c(O)c(CN2CCCC2)c1)c1ccccc1Cl [XXVI, N--(2-chlorobenzoyl)-3,5-bis(pyrrolidinylmethyl)-4-hydroxybenzylamine] | 2.3 |
| O=C(NCc1cc(CN2CCCC2)c(O)c(CN2CCCC2)c1)c1ccccc1 [Example XXII, N-(benzoyl)-3,5-bis(pyrrolidinylmethyl)-4-hydroxybenzylamine] | 3 |
| O=C(Nc1cc(CN2CCOCC2)c(O)c(CN2CCOCC2)c1)c1ccccc1 [Example XXXI, N-(benzoy)3,5-bis(morpholinomethyl)-4-hydroxyaniline] | 16.5 |
| Cc1cccc(C)c1C(=O)Nc1cc(CN2CCCC2)c(O)c(CN2CCCC2)c1 [IXX, N--(2,6,dimethylbenzoyl)-3,5,-bis(N--pyrrolidinylmethyl)-4-hydroxyaniline] | 4.3 |
| O=C(NCc1cc(CN2CCCC2)c(O)c(CN2CCCC2)c1)c1ccccc1C(F)(F)F [XXIV, N--(2-trifluoromethylbenzoyl)-3,5-bis(pyrrolidinylmethyl)-4-hydroxybenzylamine] | 1.7 |
| O=C(NCc1cc(CN2CCCC2)c(O)c(CN2CCCC2)c1)c1ccc(Cl)cc1 [XXIII, N--(4-chlorobenzoyl)-3,5-bis(pyrrolidinylmethyl)-4-hydroxybenzylamine] | 3.8 |
| O=C(Nc1cc(CN2CCCC2)c(O)c(CN2CCCC2)c1)c1cccc(C(F)(F)F)c1 [IX, N--(3-trifluoromethylbenzoyl)-3,5,-bis(N--pyrrolidinylmethyl)-4-hydroxyaniline] | 2.25 |
| COc1ccccc1C(=O)Nc1cc(CN2CCCC2)c(O)c(CN2CCCC2)c1 [XIV, N--(2-methoxybenzoyl)-3,5,-bis(N--pyrrolidinylmethyl)-4-hydroxyaniline] | 3 |
| O=C(Nc1cc(CN2CCCC2)c(O)c(CN2CCCC2)c1)c1cccc(Cl)c1 [XI, N--(3-chlorobenzoyl)-3,5,-bis(N--pyrrolidinylmethyl)-4-hydroxyaniline] | 3.75 |
| O=C(Nc1cc(CN2CCCC2)c(O)c(CN2CCCC2)c1)c1ccccc1C(F)(F)F [XII, N--(2-trifluoromethylbenzoyl)-3,5,-bis(N--pyrrolidinylmethyl)-4-hydroxyaniline] | 6.2 |
| O=C(NCc1cc(CN2CCCC2)c(O)c(CN2CCCC2)c1)c1ccc(C(F)(F)F)cc1 [XXXV, N-(4-trifluoromethyl)-3,5-bis(pyrrolidinylmethyl)-4-hydroxybenzylamine] | 4.5 |
| Cc1ccccc1C(=O)Nc1cc(CN2CCCC2)c(O)c(CN2CCCC2)c1 [XVI, N--(2-methylbenzoyl)-3,5,-bis(N--pyrrolidinylmethyl)-4-hydroxyaniline] | 2 |
| O=C(Nc1cc(CN2CCCC2)c(O)c(CN2CCCC2)c1)c1c(Cl)cccc1Cl [XVII, N--(2,6,dichlorobenzoyl)-3,5,-bis(N--pyrrolidinylmethyl)-4-hydroxyaniline] | 2 |
| O=C(Nc1ccccc1)c1cc(CN2CCCC2)c(O)c(CN2CCCC2)c1 [Example XXXIII, N-([3,5-bis(pyrrolidinylmethyl)-4-hydroxy]benzoyl)-aniline] | 3.5 |
| Nc1ccc(C(=O)Nc2cc(CN3CCCC3)c(O)c(CN3CCCC3)c2)cc1 [XXVIII, N-(4-aminobenzoyl)-3,5-bis(pyrrolidinylmethyl)-4-hydroxyaniline] | 4.5 |

Same assay, conditions: Ouabain dog, IV infusion; ED is the effective dose required to sustain normal sinus rhythm

| Molecule | Antiarrhythmic ED in Ouabain Dog |
| --- | --- |
| O=C(Nc1cc(CN2CCCC2)c(O)c(CN2CCCC2)c1)c1ccc(Cl)cc1Cl [VI, N--(2,4,dichorobenzoyl)-3,5,-bis(N--pyrrolidinylmethyl)-4-hydroxyaniline] | low activity |
| O=C(Cc1cccs1)Nc1cc(CN2CCCC2)c(O)c(CN2CCCC2)c1 [Example XXI] | low activity |
| COc1cc(C(=O)Nc2cc(CN3CCCC3)c(O)c(CN3CCCC3)c2)cc(OC)c1OC [XVIII] | inactive |
